Measured values published in patent US20070026090A1, “Treatment and prevention of inflammatory disease and mitochondrial dysfunction with high dose selenium” (priority 2003, published 2007).

Assays:
[1] = system: J774.2 macrophages; assay: Intracellular ROS (H2O2) production, DCF fluorescence; type: cell-based, murine
Description: Cell culture: Murine J774.2 macrophages (kindly provided by Prof. Dov Zipori from the Weizmann Institute of Science) were grown in RPMI medium supplemented with 10% (w/v) fetal calf serum, penicillin (100 U/ml), streptomycin (100 μg/ml) and 1× glutamine at 37° C. in a humidified atmosphere consisting of 95% air and 5% CO2. Experiments were performed on cells at 60% confluence.
Intracellular Radical Oxygen Species (ROS) (H2O2): Intracellular ROS were detected using dihydrodichlorofluorescein (H2DCF-DA). Cells exposed to different treatments were washed three times with PBS. Cells were centrifuged (2000 RPM, 5 min), resuspended in PBS and incubated with 25 μM H2DCF-DA for 30 min at 37° C. To detect intracellular fluorescence, the fluorochrome-loaded cells were excited using a 488-nm argon-ion laser in a flow cytometer. The dichlorofluorescein (DCF) emission was recorded at 530 nm. Data were collected from at least 10,000 cells. Alternatively, DCF fluorescence was recorded using a microfluorometer plate reader (GENios, Tecan, Austria). Cells were washed twice with PBS, then 25 μM H2DCF-DA was added and cells incubated for 30 min at 37° C. Following an additional wash, cells were lysed with PBS-0.2% Triton-X 100. Total fluorescence was recorded and calibrated according to protein content.

[2] = system: GAPDH; assay: GAPDH housekeeping control transcript (RTPCR); type: cell-based, murine
Description: Reverse transcriptase-PCR (RTPCR): Total RNA was prepared and isolated by the Tri-Reagent method according to the manufacturer's protocol (Sigma, St. Louis Mo., USA). Total RNA (1 μg) was converted into cDNA using Reverse-iT first strand synthesis kit (Abgene, UK). Amplification of MnSOD and UCP2 sequences was performed by incubating 10 ng equivalents of DNA with the following oligonucleotide primers:
The sequence of glyceraldehyde-3-phosphate dehydrogenase (GAPDH) was amplified as a control using the following primers: Left (sense) 5′-[…]-3′(SEQ ID NO: 9) corresponding to nucleotides 364 to 382 of mouse mRNA (GenBank Accession No. XM 195823.21).
Right (antisense) 5′[…]-3′ (SEQ ID NO: 10) corresponding to nucleotides 683 to 703 of mouse mRNA (GenBank Accession No. XM 195823.21). The expected PCR product was 339 bp. Actual PCR product was approximately 340 bp, measured on 1.25% agarose gel in TAE containing ethidium bromide.
PCR was performed with 28 cycles (25 cycles for GAPDH) of 30 seconds at 96° C., 30 seconds at 58° C. and 1 min at 72° C. RTPCR products were analyzed on 1.3% (w/v) agarose gels.

[Se] [selenium]
ROS (H2O2) production over the concentration range ([1]; 0.5-30 μM, resting J774.2 (FIG. 8A)): reduced ROS production in a dose-dependent manner
ROS production in activated macrophages ([1]; LPS 10 ng/ml + INFγ 50 units/ml 24 h, then 10 μM (FIG. 16A)): reduces
decrease in peroxide production (DCF fluorescence) ([1]; at 30 μM, resting J774.2 (FIG. 8A)): > 30%
GADPH expression, activated macrophages ([2]; LPS + INFγ activated (FIG. 11)): No effect
GADPH RNA levels ([2]; resting J774.2 (FIGS. 9, 10)): No effect
